The results in this text go back to ChEMBL document CHEMBL2074229, “Inhibition of drug transport by genistein in multidrug-resistant cells expressing P-glycoprotein” (Biochem Pharmacol, 1997).

This data set addresses ATP-dependent translocase ABCB1 (Homo sapiens, UniProt P08183). As to the kind of experiment: TP_TRANSPORTER: inhibition of Rhodamine 123 efflux (R123: 10 uM, Genistein: 200 uM) in BALB/c-3T3-1000 cells (MDR1-transfected). Format: functional, cell-based. Conditions: mouse, balb/c-3t3-1000, 200 µM.

Sequence of ATP-dependent translocase ABCB1 (P08183 whole entry): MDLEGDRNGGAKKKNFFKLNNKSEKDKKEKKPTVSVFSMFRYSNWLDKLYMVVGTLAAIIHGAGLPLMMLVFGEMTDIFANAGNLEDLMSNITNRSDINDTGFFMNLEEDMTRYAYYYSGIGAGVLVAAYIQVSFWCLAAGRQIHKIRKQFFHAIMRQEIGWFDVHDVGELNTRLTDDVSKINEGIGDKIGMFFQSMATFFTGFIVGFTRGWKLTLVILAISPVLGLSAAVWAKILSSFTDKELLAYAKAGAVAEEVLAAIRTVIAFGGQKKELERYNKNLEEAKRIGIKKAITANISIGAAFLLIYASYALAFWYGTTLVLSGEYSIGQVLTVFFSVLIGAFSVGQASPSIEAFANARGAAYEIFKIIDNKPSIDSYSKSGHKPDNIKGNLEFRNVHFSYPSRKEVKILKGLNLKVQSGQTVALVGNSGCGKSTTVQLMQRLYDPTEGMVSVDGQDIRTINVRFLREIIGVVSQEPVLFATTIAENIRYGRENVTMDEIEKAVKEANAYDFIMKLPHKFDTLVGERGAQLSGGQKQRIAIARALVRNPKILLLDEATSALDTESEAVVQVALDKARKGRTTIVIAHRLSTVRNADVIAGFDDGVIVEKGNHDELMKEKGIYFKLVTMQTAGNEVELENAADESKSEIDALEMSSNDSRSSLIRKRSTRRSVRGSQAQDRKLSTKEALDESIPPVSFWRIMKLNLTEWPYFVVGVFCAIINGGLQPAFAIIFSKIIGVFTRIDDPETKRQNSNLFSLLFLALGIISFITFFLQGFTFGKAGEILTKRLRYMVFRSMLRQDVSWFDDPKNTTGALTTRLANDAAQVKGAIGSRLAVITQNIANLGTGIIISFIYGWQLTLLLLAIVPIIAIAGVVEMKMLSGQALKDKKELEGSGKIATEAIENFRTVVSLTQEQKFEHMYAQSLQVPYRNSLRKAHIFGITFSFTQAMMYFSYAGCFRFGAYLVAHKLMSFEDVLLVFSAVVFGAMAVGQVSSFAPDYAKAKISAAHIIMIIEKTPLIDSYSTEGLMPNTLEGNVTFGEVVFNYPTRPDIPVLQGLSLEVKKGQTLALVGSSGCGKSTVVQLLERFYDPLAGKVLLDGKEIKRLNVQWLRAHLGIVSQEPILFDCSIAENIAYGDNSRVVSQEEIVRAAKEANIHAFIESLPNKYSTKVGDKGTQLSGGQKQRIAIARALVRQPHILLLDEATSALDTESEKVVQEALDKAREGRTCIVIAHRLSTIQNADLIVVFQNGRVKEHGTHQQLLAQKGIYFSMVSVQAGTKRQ

Turning to `O=c1c(-c2ccc(O)cc2)coc2cc(O)cc(O)c12` [GENISTEIN], the Inhibition result is “inhibitor [50-60 % inhibition]”.
